“Also recorded” adds a separate entry of the source.
Experiments:
[1] = system: ZSCAN4; experiment: Activation of DUX4 target gene ZSCAN4, RT-qPCR; type: cell-based, human; conditions: MB135 cells ± doxycycline
Protocol: (§1) All myoblast experiments were conducted in immortalized MB135 or MB200 myoblast cell lines (isolated from a control or FSHD2 subject, respectively cultured in Ham's F-10 Nutrient Mix (Gibco) supplemented with 15% fetal bovine serum (Hyclone), 100 U/100 μg/ml penicillin/streptomycin (Gibco), 1 μM dexamethasone (Sigma), and 10 ng/ml recombinant human basic fibroblast growth factor (PeproTech). To differentiate the myoblasts to myotubes, media was changed to DMEM supplemented with 10 μg/ml insulin (Sigma) and 10 μg/ml transferrin (Sigma). Cell lines containing doxycycline-inducible transgenes were additionally cultured with 2 μg/mL puromycin (Sigma). Transgenes were induced with 1 μg/mL of doxycycline (Sigma) for 4 hours prior to other treatments for a total of 20 hrs. The Kitra-SRS cells (RRID:CVCL_YI69) were provided by Dr. H. Otani and Osaka University (Nakai et al., 2019) and were cultured in DMEM supplemented with 10% fetal bovine serum (Hyclone) and 100 U/100 μg/ml penicillin/streptomycin (Gibco). Biological replicates consisted of independent but parallel experiments, such as simultaneously stimulating three cell culture plates with IFNγ. Technical replicates consisted of repeat measurements of the same biological sample, such as loading the same biological sample in triplicate for analysis by RT-qPCR.
(§2) Myoblasts were transfected with either (final concentrations) 10 μM 2′,3′-cGAMP (Sigma Aldrich), 2 μg/mL poly(I:C) (Invitrogen), or 1 μg/mL 3′ppp-dsRNA RIG-I ligand (Dan Stetson Lab, UW) using Lipofectamine 2000 according to manufacturer's protocol, or were stimulated with 1000U IFNβ (PeproTech) or 200 ng/ml IFNγ (R+D Systems) by addition directly to cell culture medium. After 16 hours of immune stimulation, RNA was collected from cells using the NucleoSpin RNA Kit (Macherey-Nagel) according to manufacturer's instructions. RNA samples were quantified by nanodrop and 1 μg of RNA per sample was treated with DNase I Amplification Grade (Thermo Fisher), and then synthesized into cDNA using the Superscript IV First-Strand Synthesis System, including oligo dT primers (Invitrogen). qPCR was run in 384-well plates on an Applied Biosystems QuantStudio 6 Flex Real-Time PCR System (ABI) and analyzed in Microsoft Excel.

[2] = system: interferon-stimulated genes IFIH1, ISG20, CXCL9, and CD74; experiment: IFNG induction of interferon-stimulated genes, RT-qPCR in MB135 cells with doxycycline-inducible transgenes; type: cell-based, human; conditions: MB135 cells, doxycycline-induced transgene, continuous protocol, IFNG 16 h
Protocol: as §1, §2

[3] = system: eIF2-alpha, RPS6, 4EBP1, eIF4E, eEF2; experiment: Immunoblot of translational regulators; type: cell-based, human; conditions: parental MB135 myoblasts treated with mTOR inhibitor
Protocol: (§3) Protein samples were harvested in RIPA buffer [150 mM NaCl, 1% NP-40, 0.5% Na-deocycholate, 1% SDS, 25 mM Tris-HCl pH7.4] supplemented with protease and phosphatase inhibitor tablets (Pierce), followed by sonication in Diagenode Bioruptor. Lysate was cleared by centrifugation at 16000×g and quantified using a Pierce BCA assay (Thermo Fisher Scientific). Samples were run on NuPAGE precast polyacrylamide gels (Invitrogen) and transferred to PVDF membrane. Membranes were blocked in PBS containing 0.1% Tween-20 and 5% non-fat dry milk before overnight incubation at 4° C. with primary antibodies (see resource table for a list of antibodies used in this study). Membranes were incubated with horseradish peroxidase-conjugated secondary antibodies for 1 hour at room temperature and SuperSignal chemiluminescent substrate (Thermo Scientific) was used for detection on film with a Mini-medical 90 processor. Membranes were stripped with Restore Western Blot Stripping Buffer (Pierce).

[4] = system: MHC-I, PSMB8, PSMB9, and PSMB10; experiment: Immunoblot of IFNG-induced MHC-I and immunoproteasome protein in MB135 myoblasts treated with inhibitors; type: cell-based, human; conditions: MB135 myoblasts without DUX4 induction, agent then IFNG 16 h; 4EGI-1 at 50 uM
Protocol: To test if mTOR inactivation was sufficient to block MHC-I and immunoproteasome protein levels in the absence of DUX4, parental MB135 myoblasts were treated with mTOR inhibitors everolimus or Torin2. Everolimus is a second-generation rapamycin analog with binding specificity for mTORC1. […] To further validate the role of 4EBP1 in blocking MHC-I and immunoproteasome protein expression, MB135 cells were treated with 4EGI-1, a small molecule that pharmacologically mimics 4EBP function and inhibits eIF4E.
as §3

[5] = system: HLA-A, HLA-B, HLA-C, PSMB8, PSMB9, PSMB10 mRNA; experiment: mRNA levels of MHC-I and immunoproteasome genes (RT-PCR, RNA-seq); type: cell-based, human; conditions: MB135 cells, 50 uM, data not shown
Protocol: as §2
Total RNA was isolated using the NucleoSpin RNA kit (Machery-Nagel) or Direct-zol RNA Mini-Prep Kit (Zymo Research) according to manufacturer's instructions. RNA-seq libraries were prepared using the Illumina TruSeq RNA Sample Prep v2 Kit and sequenced using 50 bp paired-end sequencing on the Illumina NextSeq platform by the Fred Hutchinson Cancer Center Genomics Core.

[6] = system: proteins that co-immunoprecipitated with DUX4-CTD constructs expressed in MB135 myoblasts; experiment: LC-MS of proteins co-immunoprecipitated with DUX4-CTD (Table 1) and western validation; type: binding, human
Text: As an unbiased method to identify proteins that interact with the C-terminal region of DUX4, liquid chromatography mass spectroscopy (LC-MS) was used to identify proteins that co-immunoprecipitated with DUX4-CTD constructs expressed in MB135 myoblasts. In the first experiment, MB135iDUX4-CTD cells were used, either untreated, treated with doxycycline alone, or with both doxycycline and IFNG. In the second experiment, MB135iDUX4-CTD and MB135iDUX4mL1dL2 cells were used, both treated with doxycycline and IFNG, compared to these two cell lines untreated and combined as a control. Proteins with a minimum of 2 peptide spectrum matches (PSMs) in at least one sample that were identified in both experiments were assigned to one of ten categories (see Methods) to separate candidate interactors from other categories that might be co-purified because of obligate interactions (e.g., proteasome or ribosome) or might be less likely to be physiologically relevant (e.g., cytoskeletal proteins). Candidate interactors were then ranked based on the total PSMs for that protein across all samples.
Centrifugation at 2500 rcf at 4° C. for 5 min pelleted the nuclei, supernatant was discarded, and nuclei resuspended in 1 mL IP buffer pH 7.4 (25 mM Tris-HCl pH 7.5, 175 mM NaCl, 1 mM EDTA, 0.2% NP-40, 5% glycerol) and incubated for 1 hour at 4° C. with rotation then spun at 21000 rcf for 10 minutes at 4° C. to pellet insoluble debris. Protein concentration was determined using the Pierce BCA Protein Assay Kit (ThermoFisher, 23225). An equivalent amount of protein per sample was pre-cleared with Dynabeads Protein G (Invitrogen) bound to mouse IgG (Abcam #131368) for 1 hour at 4° C. with rotation. FLAG-tagged constructs were then immunoprecipitated with Dynabeads Protein G beads coupled to mouse anti-FLAG M2 mAb (Sigma F3165) for 3 hours at 4° C. with rotation. Beads were washed 3× with 1 mL IP buffer and eluted by adding 2× NuPage LDS Sample Buffer (Thermo Fisher, diluted from 4× with PBS) to the beads and heating for 10 minutes at 70° C.
For LC-MS, anti-FLAG immunoprecipitation was performed with beads cross-linked to the anti-FLAG antibody and the proteins competitively eluted with FLAG peptide. Eluted protein samples were electrophoresed into a NuPage 4-12% Bis-Tris gel, excised, and processed by the Fred Hutchinson Cancer Research Center Proteomics Core. Samples were reduced, alkylated, digested with trypsin, desalted, and run on the Orbitrap Eclipse Tribid Mass Spectrometer (Thermo Fisher). Proteomics data were analyzed using Proteome Discoverer 2.4 against a Uniprot human database that included common contaminants using Sequest HT and Percolator for scoring. […] Proteins that were identified in at least one sample from both independent experiments with at least 2 PSMs in one sample were assigned to one of ten categories: 1, candidates; 2, cytoskeletal associated; 3, cytoskeletal; 4, ribosome/translation associated; 5, proteasome associated; 6, membrane or extracellular; ER, golgi, or vesicle associated; 8, lipid metabolism; 9, chaperones; 10, nuclear import or nuclear membrane associated. The proteins in category 1 were further investigated for interactions with DUX4.

iDUX4dL2: DUX4 transgene deleting the second (L)LxxL(L) motif, SEQ ID NO:100 (PCGLLLDELLASPEFLQQAQPLLETEAPGELEASEEAASLEAPLSEEYRA)
transcriptional activation of DUX4 target gene ZSCAN4 [1]: failed to activate the DUX4 target ZSCAN4 | suppression of IFNG induction of ISGs (IFIH1, ISG20, CXCL9, CD74) [2]: lost the ability to suppress the panel of ISGs

iDUX4mL1: DUX4 transgene mutating the first (L)LxxL(L) motif, SEQ ID NO: 99 (PCGLLAAEAAASPEFLQQAQPLLETEAPGELEASEEAASLEAPLSEEEYRALLEEL)
transcriptional activation of DUX4 target gene ZSCAN4 [1]: failed to activate the DUX4 target ZSCAN4 | suppression of IFNG induction of ISGs (IFIH1, ISG20, CXCL9, CD74) [2]: partial activity, suppressing 3 of the 4 ISGs

Nc1ccc(-c2ccc3ncc4ccc(=O)n(-c5cccc(C(F)(F)F)c5)c4c3c2)cn1 [Torin2, reference compound]
phosphorylation of 4EBP1 and eIF4E [3]: complete hypophosphorylation of 4EBP1 and reduced eIF4E phosphorylation | phosphorylation of RPS6 [3]: blocked phosphorylation of RPS6 | effect on IFNG-induced MHC-I and immunoproteasome protein in the absence of DUX4 [4]: sufficient to post-transcriptionally repress IFNG-induced MHC-I, PSMB8, PSMB9, and PSMB10 protein expression

O=C(O)C(Cc1ccccc1[N+](=O)[O-])=NNc1nc(-c2ccc(Cl)c(Cl)c2)cs1 (mixture of isomers) [4EGI-1]
effect on IFNG-induced MHC-I and immunoproteasome protein in the absence of DUX4 [4]: suppressed IFNG-induced MHC-I and immunoproteasome subunits at the protein level; also recorded: suppressed IFN-induced MHC-I and iProteasome subunits at the protein level | effect on mRNA levels of MHC-I and iProteasome subunits [5]: had no effect on mRNA levels

COc1ccc(C[C@H](NC(=O)[C@H](C)NC(=O)CN2CCOCC2)C(=O)N[C@@H](Cc2ccccc2)C(=O)C2(C)CO2)cc1 (stereo in doubt) [ONX-0914]
effect on IFNG-induced MHC-I and immunoproteasome protein in the absence of DUX4 [4]: did not reduce IFNG-induced MHC-I levels

CC(C)C[C@H](NC(=O)[C@H](CCc1ccccc1)NC(=O)CN1CCOCC1)C(=O)N[C@@H](Cc1ccccc1)C(=O)N[C@@H](CC(C)C)C(=O)[C@@]1(C)CO1 [Carfilzomib]
effect on IFNG-induced MHC-I and immunoproteasome protein in the absence of DUX4 [4]: abrogated the accumulation of MHC-I following IFNG treatment

CO[C@H]1C[C@@H]2CC[C@@H](C)[C@@](O)(O2)C(=O)C(=O)N2CCCC[C@H]2C(=O)O[C@H]([C@H](C)C[C@@H]2CC[C@@H](OCCO)[C@H](OC)C2)CC(=O)[C@H](C)/C=C(\C)[C@@H](O)[C@@H](OC)C(=O)[C@H](C)C[C@H](C)/C=C/C=C/C=C/1C [everolimus, reference compound]
phosphorylation of 4EBP1 and eIF4E [3]: 4EBP1 phosphorylation and eIF4E phosphorylation remained largely unaltered | phosphorylation of RPS6 [3]: blocked S6K phosphorylation of RPS6 | effect on IFNG-induced MHC-I and immunoproteasome protein in the absence of DUX4 [4]: did not block MHC-I or immunoproteasome protein expression

P07900
4. longCTD + Dox + IFNG ([6]; LC-MS counts of the listed protein co-immunoprecipitated with DUX4-CTD bait longCTD, experiment 4, Dox + IFNG): 10 | 4. mL1dL2 + Dox + IFNG ([6]; LC-MS counts of the listed protein co-immunoprecipitated with DUX4-CTD bait mL1dL2, experiment 4, Dox + IFNG): 5 | 4. + IFNG mix ([6]; LC-MS counts of the listed protein in anti-FLAG co-IP, experiment 4, IFNG, no doxycycline, mix, MB135 myoblasts): 6 | 3. + IFNg + Dox longCTD ([6]; bait longCTD, experiment 3, IFNg + Dox): 9 | SUM of PSMS ([6]; sum over all samples): 30

Source: patent US20250339531A1, “DUX4 POLYPEPTIDES AND NUCLEIC ACIDS FOR TREATING INFLAMMATORY AND AUTOIMMUNE CONDITIONS” (Fred Hutchinson Cancer Center, priority 2021, published 2025)
